Legend:
[1] = target: α-glucosidase (Saccharomyces cerevisiae, UniProt P53341); test: α-Glucosidase inhibition assay (PNPG substrate); format: biochemical; details: pH 6.8, 37 °C
Description: The in vitro α-glucosidase inhibitory activities of all synthesised compounds were evaluated using p-nitrophenyl-α-D-glucopyranoside (PNPG) as substrate.
The α-glucosidase inhibitory activity of compounds 5a ∼ c, 6a ∼ c, and 7a ∼ c were performed according to our previous report.[30]^,[31] The 10 μL of α-glucosidase enzyme (final concentration 0.1 U/mL) and 10 μL of test compounds (dissolved in DMSO) were added into 130 μL of phosphate buffer (0.1 M, pH 6.8), followed 10 min incubation at 37 °C. Then 50 μL of PNPG (final concentration 0.25 mM) was added, and mixture was continuely incubated for 20 min at 37 °C. The absorbance at 405 nm was measured using Multimodel Reader. The percentage of enzyme inhibition was calculated: % Inhibition = [(A1– A0)/A0] × 100%, where A1 was the absorbance with the test compound, and A0 was the absorbance without the test compound. The IC50 value of compound was obtained from the plot of inhibition percentage vs test compound at different concentrations. […] The experiment was performed in duplicate.

[2] = target: T1, α-amylase (Sus scrofa, UniProt P00690); test: α-Amylase inhibition assay (starch/DNS); format: biochemical; details: starch substrate, pH 6.9, 37 °C
T1 sequence (P00690 16-511): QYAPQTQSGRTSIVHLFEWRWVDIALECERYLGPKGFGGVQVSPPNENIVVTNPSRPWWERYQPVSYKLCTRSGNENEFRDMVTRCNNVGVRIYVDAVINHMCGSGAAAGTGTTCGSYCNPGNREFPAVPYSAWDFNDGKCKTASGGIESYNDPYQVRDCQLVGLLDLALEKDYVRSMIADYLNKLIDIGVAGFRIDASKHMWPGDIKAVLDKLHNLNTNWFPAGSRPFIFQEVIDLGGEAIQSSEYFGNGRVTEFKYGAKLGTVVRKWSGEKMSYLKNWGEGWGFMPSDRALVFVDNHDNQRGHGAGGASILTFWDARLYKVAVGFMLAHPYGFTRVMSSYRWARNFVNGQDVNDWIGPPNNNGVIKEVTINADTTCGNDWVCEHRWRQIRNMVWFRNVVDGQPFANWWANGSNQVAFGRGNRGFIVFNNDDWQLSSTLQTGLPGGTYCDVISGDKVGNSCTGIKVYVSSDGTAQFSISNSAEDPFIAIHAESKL
Description: The α-amylase inhibitory activity of all tested compounds was performed according to previous report.[33]^,[34] A 10 μL of α-amylase enzyme solution (final concentration 0.25 U/mL), 10 μL of test compounds (dissolved in DMSO), and 80 μL of phosphate buffer (20 mM, pH 6.9) were mixed and incubated for 10 min at 37 °C. Next, 100 μL starch solution (final concentration 0.5%) was added into the mixture followed by an incubation of 10 min. After 100 μL DNS (containing 1 M Potassium sodium tartrate and 48 mM 3,5-Dinitrosalicylic acid) was added, the mixture was kept incubated in boiling water for 15 min. Finally, the absorbance was measured at 540 nm after dilution of solution by adding 900 μL distilled water. The percentage of enzyme inhibition was calculated: % Inhibition = [(A1– A0)/A0] × 100%, where A1 was the absorbance with the test compound, and A0 was the absorbance without the test compound. The IC50 value of compound was obtained from the plot of inhibition percentage vs test compound at different concentrations. […] The experiment was performed in duplicate.

α-glucosidase, sequence (P53341 whole entry): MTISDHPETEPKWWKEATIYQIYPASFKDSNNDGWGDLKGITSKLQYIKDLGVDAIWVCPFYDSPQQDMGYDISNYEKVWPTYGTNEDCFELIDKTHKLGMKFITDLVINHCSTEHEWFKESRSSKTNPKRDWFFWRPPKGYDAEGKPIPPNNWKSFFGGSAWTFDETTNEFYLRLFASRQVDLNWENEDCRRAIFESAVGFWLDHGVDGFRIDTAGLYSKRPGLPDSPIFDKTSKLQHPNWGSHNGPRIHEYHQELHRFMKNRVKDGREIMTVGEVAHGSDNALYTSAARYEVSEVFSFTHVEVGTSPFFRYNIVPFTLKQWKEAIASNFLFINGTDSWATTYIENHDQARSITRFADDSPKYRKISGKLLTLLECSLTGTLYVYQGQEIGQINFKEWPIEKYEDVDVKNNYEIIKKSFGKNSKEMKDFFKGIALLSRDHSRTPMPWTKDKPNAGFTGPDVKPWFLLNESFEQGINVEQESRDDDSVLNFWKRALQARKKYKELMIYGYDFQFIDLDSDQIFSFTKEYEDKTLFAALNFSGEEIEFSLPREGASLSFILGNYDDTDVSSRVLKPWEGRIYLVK

Substance	IC50 [1] [µM]	IC50 [2] [µM]
2,2-Bis(1-methyl-1H-pyrrol-3-yl)acetonitrile [Compound 6a]	220 ± 5.02	464 ± 9.47
2,2-Di(1H-pyrrol-3-yl)acetonitrile [Compound 6c]	130 ± 3.81	419 ± 11.3
